# Test results as given in US6342503B1, “1N-alkyl-n-arylpyrimidinamines and derivatives thereof” (DuPont Pharmaceuticals Company, priority 1993, dated 2002).
# Target: T1, CRF receptor (Rattus norvegicus, UniProt P35353)
# T1 construct: 100 μl of membrane suspension as prepared above to give a total reaction volume of 300 μl; from tissue; host or cells: rat cerebral cortex membrane homogenate
# T1 sequence (P35353 24-415): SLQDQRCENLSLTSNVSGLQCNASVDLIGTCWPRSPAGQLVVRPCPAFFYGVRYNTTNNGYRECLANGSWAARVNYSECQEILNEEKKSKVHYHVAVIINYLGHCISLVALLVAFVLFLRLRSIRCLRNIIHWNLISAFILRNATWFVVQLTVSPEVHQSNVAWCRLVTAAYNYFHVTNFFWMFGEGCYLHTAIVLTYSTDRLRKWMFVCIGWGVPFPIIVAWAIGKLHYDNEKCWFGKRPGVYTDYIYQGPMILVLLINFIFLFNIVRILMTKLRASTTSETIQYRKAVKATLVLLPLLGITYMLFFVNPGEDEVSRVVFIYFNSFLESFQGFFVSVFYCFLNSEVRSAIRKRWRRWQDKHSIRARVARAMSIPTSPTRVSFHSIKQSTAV
# Experiment: In vitro CRF receptor binding assay (competition with [125I] ovine CRF, rat cortex membranes)
# Settings: competition with [125I] ovine CRF, 2 h at 22° C.; Ki classes; read-out: Inhibition Ki
# Method: In vitro Receptor Binding Assay
# Tissue Preparation: Male Sprague Dawley rats (180-200 g) were sacrificed by decapitation and the cortex was dissected on ice, frozen whole in liquid nitrogen and stored at −70° C. until use. On the day of assay, frozen tissue was weighed and homogenized in 20 volumes of ice cold buffer containing 50 mM Tris, 10 mM MgCl2, 2 mM EGTA, pH 7.0 at 22° C. using a Polytron (Brinkmann Instruments, Westbury, N.Y.; setting 6) for 20 s. The homogenate was centrifuged at 48,000× g for 10 min at 4° C. The supernatant was discarded, and the pellet was re-homogenized in the same volume of buffer and centrifuged at 48,000× g for 10 min at 4° C. The resulting pellet was resuspended in the above buffer to a final concentration of 20-40 mg original wet weight/mL and used in the assays described below.
# CRF Receptor Binding: Receptor binding assays were carried out essentially as described by E. B. De Souza, J. Neurosci. […]
# All assays were carried out at equilibrium for 2 h at 22° C. as described by E. B. De Souza, J. Neurosci. […] The reaction was terminated by centrifugation of the tubes in a Beckman microfuge for 5 min at 12,000× g. Aliquots of the supernatant were collected to determine the “free” radioligand concentration. The remaining supernatant was aspirated and the pellets washed gently with ice-cold PBS plus 0.01% Triton X-100; centrifuged again and monitored for bound radioactivity as described above. […] This program has the distinct advantage of fitting the raw experimental data on an untransformed coordinate system where errors are most likely to be normally distributed and uncorrelated with the independent variable. […] The parameters for the affinity constants (KD) and receptor densities (Bmax) are also provided along with statistics on the general “fit” of the estimated parameters to the raw data.
# Competition Curve Analysis
# The resulting pellets were surface washed twice by centrifugation with 1 mL of ice-cold phosphate buffered saline and 0.01% Triton X-100; the supernatants discarded and the pellets monitored for radioactivity at approximately 80% efficiency. The level of non-specific binding was defined in the presence of […] unlabeled rat/humanCRF (r/hCRF). Data from competition curves were analyzed by the program LIGAND. […] Routinely, the data were analyzed using a one- and two-site model comparing the “goodness of fit” between the models in order to accurately determine the Ki. Statistical analyses provided by LIGAND allowed the determination of whether a single-site or multiple-site model should be used.
# In Table 17; the Ki values were determined using the assay conditions described above.
row,Ki,SMILES
1,< 500 nM,"CCN(c1nc(C)cc(C)n1)c1ccc(C(C)=NOC)cc1SC [compound 178, N-(2-methylthio-4-methoxyiminoethylphenyl)-N-ethyl-4,6-dimethyl-2-pyrimidinamine]"
2,2000 to 10000 nM,"CCN(c1nc(C)cc(C)n1)c1ccc(C(C)=NOC)cc1S(C)(=O)=O [compound 179, N-(2-methylsulfonyl-4-methoxyiminoethylphenyl)-N-ethyl-4,6-dimethyl-2-pyrimidinamine]"
3,< 500 nM,"CCN(c1nc(C)cc(N2CCOCC2)n1)c1ccc(C(C)C)cc1Br [compound 16, N-(2-bromo-4-(1-methylethyl)phenyl)-N-ethyl-4-morpholino-6-methyl-2-pymidinamine]"

# Same assay, conditions: read-out: Inhibition Ki
row,SMILES,Ki
1,Cc1cc(C)nc(N(C)c2ccc(C(C)C)cc2)n1 [compound 66],2000 to 10000 nM
2,"Cc1cc(C)nc(N(C)c2ccc(C(C)C)cc2Br)n1 [compound 4, N-(2-bromo-4-(1-methylethyl)phenyl)-N-methyl-4,6-dimethyl-2-pymidinamine]",< 500 nM
3,CCN(c1nc(C)cc(CN(C)Cc2ccco2)n1)c1ccc(C(C)C)cc1Br [compound 276],< 500 nM
4,"CCN(c1nccc(C)n1)c1ccc(C(C)C)cc1Br [compound 49, N-(2-Bromo-4-(1-methylethyl)phenyl)-N-ethyl-4-methyl-2-pymidinamine]",2000 to 10000 nM
5,CCN(c1nc(C)nc(N2CCCCC2)n1)c1ccc(C(C)C)cc1I [compound 137],< 500 nM
6,"CCc1ccc(N(C)c2nc(C)cc(C)n2)c(Br)c1 [compound 9, N-(2-bromo-4-ethylphenyl)-N-methyl-4,6-dimethyl-2-pypimidinamine]",< 500 nM
7,"CCN(c1nc(C)nc(OCc2ccccc2)n1)c1ccc(C(C)C)cc1Br [compound 242, N-[2-bromo-4(1-methylethyl)phenyl]-N-ethyl-4-methyl-6-benzyloxy-1,3,5 triazin-2-amine]",501 to 2000 nM
8,"CCN(c1nc(C)cc(OC[C@@H]2CCCN2C)n1)c1ccc(C(C)C)cc1SC [compound 177, N-(2-methylthio4-(1-methylethyl)phenyl)-N-ethyl-4(S)-(N-methyl-2′-pyrrolidinomethoxy)-6-methyl-2-pyrimidinamine]",501 to 2000 nM
9,Cc1cc(Cl)nc2c1ccn2-c1ccc(C(C)C)cc1Br [Example 263],< 500 nM
10,CCN(c1nc(C)cc(C)n1)c1c(OC)cc(C)cc1OC [compound 51],501 to 2000 nM
11,CCN(c1nc(C)cc(C(O)c2ccco2)n1)c1ccc(C(C)C)cc1Br (stereo not drawn) [compound 291],< 500 nM
12,CCN(c1nc(C)cc(COCc2ccco2)n1)c1ccc(C(C)C)cc1Br [compound 221],< 500 nM
13,CCN(c1nc(C)nc(N2CCSCC2)n1)c1ccc(C(C)C)cc1I [compound 135],< 500 nM
14,CCN(c1nc(C)cc(COCc2cccnc2)n1)c1ccc(C(C)C)cc1Br [compound 216],< 500 nM
15,Cc1cc(C)nc(N(C)c2ccc(C(C)(C)C)cc2Br)n1 [compound 11],< 500 nM
16,Cc1cc(-c2ccccc2)c2ccn(-c3ccc(C(C)C)cc3Br)c2n1 [Example 261],< 500 nM
17,CCN(c1nc(C)cc(COc2ccccn2)n1)c1ccc(C(C)C)cc1Br [compound 210],501 to 2000 nM
18,CCN(c1nc(C)nc(N(C)C)n1)c1c(Br)cc(OC)cc1OC [compound 238],< 500 nM
19,Cc1cc(-c2ccccc2)c2c(C#N)cn(-c3ccc(C(C)C)cc3Br)c2n1 [Example 256],< 500 nM
20,CCN(c1nc(C)cc(C)n1)c1ccc(OC)cc1Br [compound 206],< 500 nM
21,"CCN(c1nc(C)cc(C)n1)c1ccc(OC(C)C)cc1Br [compound 57, N-(2-Bromo-4-(isopropoxy)phenyl)-N-ethyl-4,6dimethyl-2-pymidinamine]",< 500 nM
22,CCN(c1nc(C)cc(OCCCS(C)(=O)=O)n1)c1ccc(C(C)C)cc1Br [compound 156],< 500 nM
23,CCCCc1ccc(N(CC)c2nc(CC)cc(CC)n2)c(Br)c1 [compound 24],501 to 2000 nM
24,"CCN(c1nc(C)cc(C)n1)c1ccc(COC)cc1I [compound 172, N-(2-iodo-4-methoxymethylphenyl)-N-ethyl-4,6-dimethyl-2-pyrimidinamine]",< 500 nM
25,Cc1cc(C)nc(N(CC#N)c2ccc(C(C)C)cc2Br)n1 [compound 32],< 500 nM
26,CCN(c1nc(C)cc(COCc2ccncc2)n1)c1ccc(C(C)C)cc1Br [compound 219],< 500 nM
27,Cc1cc(C)nc(N(C)c2ccc(I)cc2)n1 [compound 52],2000 to 10000 nM
28,"CCSc1cc(C(C)C)ccc1N(CC)c1nc(C)cc(C)n1 [compound 175, N-(2-ethylthio-4-(1-methylethyl)phenyl)-N-ethyl-4,6dimethyl-2-pyrimidinamine]",501 to 2000 nM
29,CCN(c1nc(C)nc(C)n1)c1ccc(C(C)C)cc1Br [compound 133],501 to 2000 nM
30,COc1ccc(N(C)c2nc(C)cc(C)n2)c(OC)c1 [compound 2],501 to 2000 nM

# Continued, values first:
row,Ki,SMILES
1,< 500 nM,CCN(c1nc(C)cc(C(C)(C)O)n1)c1ccc(C(C)C)cc1Br [compound 295]
2,< 500 nM,"CCN(c1nc(C)cc(N2CCSCC2)n1)c1ccc(C(C)C)cc1I [compound 73, N-ethyl-N-(2-iodo4-(1-methylethyl)phenyl)4-thiomorpholino-6-methyl-2-pyrimidinamine]"
3,< 500 nM,CCN(c1nc(C)cc(CN2CCN(c3ccccn3)CC2)n1)c1ccc(C(C)C)cc1Br [compound 280]
4,2000 to 10000 nM,CCN(c1nc(C)cc(COCCN2CCOCC2)n1)c1ccc(C(C)C)cc1Br [compound 231]
5,< 500 nM,CCN(c1nc(C)cc(OCCN(C)C)n1)c1ccc(C(C)C)cc1Br [compound 161]
6,< 500 nM,"CCN(c1nc(C)cc(S(C)(=O)=O)n1)c1ccc(C(C)C)cc1Br [compound 159, N-(2-bromo-4-(1-methylethyl)phenyl)-N-ethyl-4-methyl-6-(thiomethyl)-2-pyrimidinamine, dioxide]"
7,< 500 nM,CCN(c1nc(C)cc(CN2CCN(c3cnccn3)CC2)n1)c1ccc(C(C)C)cc1Br [compound 278]
8,< 500 nM,CCN(c1nc(C)cc(N)n1)c1ccc(C(C)C)cc1Br [compound 155]
9,< 500 nM,CCN(c1nc(C)cc(CN2CCN(c3ncccn3)CC2)n1)c1ccc(C(C)C)cc1Br [compound 281]
10,< 500 nM,CCN(c1nc(C)cc(CN(C)C)n1)c1ccc(C(C)C)cc1Br [compound 279]
11,< 500 nM,"CCN(c1nc(C)cc(N2CCSC2)n1)c1ccc(C(C)C)cc1I [compound 171, N-(2-iodo-4-(1-methylethyl)phenyl)-N-ethyl-4-thiazolidino-6-methyl-2-pyrimidinamine]"
12,< 500 nM,CCN(c1nc(C)cc(Cl)n1)c1ccc(C(C)C)cc1Br [compound 154]
13,< 500 nM,C=CCOC1CCN(c2cc(C)nc(N(CC)c3ccc(C(C)C)cc3Br)n2)CC1 [compound 37]
14,< 500 nM,"CCN(c1nc(C)cc(C(=O)N2CCOCC2)n1)c1ccc(C(C)C)cc1Br [compound 58, N-(2-bromo-4-(1-methylethyl)phenyl)-N-ethyl-4-methyl-6-(4-morpholinylcarbonyl)-2-pyrimidinamine]"
15,< 500 nM,"CCN(c1nc(C)nc(N2CCOCC2)n1)c1ccc(C(C)C)cc1Br [compound 134, N-[2-bromo-4-(1-methylethyl)phenyl]-N-ethyl-4-methyl-6-(4-morpholinyl)-1,3,5-triazin-2-amine]"
16,< 500 nM,"CCN(c1nc(C)cc(C)n1)c1ccc(C(C)C)cc1Br [compound 21, N-(2-bromo-4-(1-methylethyl)phenyl)-N-ethyl-4,6dimethyl-2-pyrimidinamine]"
17,2000 to 10000 nM,CCN(c1nc(C)cc(C(=O)N2CCN(c3ccccn3)CC2)n1)c1ccc(C(C)C)cc1Br [compound 274]
18,< 500 nM,CCN(c1nc(C)cc(OCCC[S+](C)[O-])n1)c1ccc(C(C)C)cc1Br (stereo not drawn) [compound 162]
